Experiments:
[1] = (§1) Inhibition of LPS-induced NF-kappaB/AP-1 signalling cascade in human THP1-Blue-CD14 cells incubated for 24 hrs by quanti-blue SEAP assay; assay type: cell-based
[2] = species on record: Homo sapiens; test: as §1; assay type: cell-based
[3] = Cytotoxicity against human THP1-Blue-CD14 cells assessed as reduction in cell viability after 24 hrs by CellTiter-Blue based fluorescence analysis
[4] = Cytotoxicity against LPS-stimulated human THP1-Blue-CD14 cells assessed as reduction in cell viability after 24 hrs by CellTiter-Blue based fluorescence analysis

## CC(C)[C@@H]1CC[C@@H](C)[C@@]23CC[C@](C)(O[C@@H]4O[C@H](CO)[C@@H](O)[C@H](O)[C@H]4OC(=O)/C=C/c4ccccc4)[C@@H]2[C@@H]13
[1]
  IC50: 13.7 µM
[2]
  inhibition: Dose-dependent effect
[3]
  IC50: 29.2 µM
[4]
  IC50: 21.6 µM

## CC(C)[C@H]1CC/C2=C/C(=O)CC[C@](C)(O[C@@H]3O[C@H](CO)[C@@H](O)[C@H](O)[C@H]3OC(=O)/C=C/c3ccccc3)C[C@@H]21
[1]
  IC50: 30.7 µM
[2]
  inhibition: Dose-dependent effect
[3]
  IC50: 133 µM
[4]
  IC50: 46.4 µM

## C=C1CC[C@@H](C(C)C)/C=C/[C@@](C)(O[C@@H]2O[C@H](CO)[C@@H](O)[C@H](O)[C@H]2OC(=O)/C=C/c2ccccc2)CCC1=O
[1]
  IC50: 49 µM
[2]
  inhibition: Dose-dependent effect
[4]
  IC50: 154 µM

## CC(C)C1=CC[C@]2(C)[C@@H](O)CC[C@@](C)(O[C@@H]3O[C@H](CO)[C@@H](O)[C@H](O)[C@H]3OC(=O)/C=C/c3ccccc3)[C@H]2C1
[1]
  IC50: 20.8 µM
[2]
  inhibition: Dose-dependent effect
[3]
  IC50: 39.1 µM
[4]
  IC50: 29.5 µM

## C[C@@H]1CC[C@H](C(C)(C)O[C@@H]2O[C@H](CO)[C@@H](O)[C@H](O)[C@H]2OC(=O)/C=C/c2ccccc2)CC2=C1CC[C@H]2C
[1]
  IC50: 28.4 µM
[2]
  inhibition: Dose-dependent effect
[3]
  IC50: 47.9 µM
[4]
  IC50: 35.2 µM

Reference: ChEMBL document CHEMBL4414624, “Terpenoids from the Stems of Fissistigma polyanthoides and Their Anti-Inflammatory Activity” (J Nat Prod, 2019)
